Laboratory results: patent US12157755B2, “CD73 inhibitor, preparation method therefor and application thereof” (Abbisko Therapeutics Co., Ltd., priority 2019, dated 2024)

Assays:
CD73 = biological target: T1, CD73 (Homo sapiens, UniProt P21589); test: In vitro enzymatic activity against CD73 (malachite green test using soluble CD73); format: biochemical; details: soluble CD73 36 ng/mL, 50 μM AMP, 30 minutes at 25° C.
T1 construct: purchased R&D systems 5795-EN-010
T1 sequence (P21589 27-547 limits assumed): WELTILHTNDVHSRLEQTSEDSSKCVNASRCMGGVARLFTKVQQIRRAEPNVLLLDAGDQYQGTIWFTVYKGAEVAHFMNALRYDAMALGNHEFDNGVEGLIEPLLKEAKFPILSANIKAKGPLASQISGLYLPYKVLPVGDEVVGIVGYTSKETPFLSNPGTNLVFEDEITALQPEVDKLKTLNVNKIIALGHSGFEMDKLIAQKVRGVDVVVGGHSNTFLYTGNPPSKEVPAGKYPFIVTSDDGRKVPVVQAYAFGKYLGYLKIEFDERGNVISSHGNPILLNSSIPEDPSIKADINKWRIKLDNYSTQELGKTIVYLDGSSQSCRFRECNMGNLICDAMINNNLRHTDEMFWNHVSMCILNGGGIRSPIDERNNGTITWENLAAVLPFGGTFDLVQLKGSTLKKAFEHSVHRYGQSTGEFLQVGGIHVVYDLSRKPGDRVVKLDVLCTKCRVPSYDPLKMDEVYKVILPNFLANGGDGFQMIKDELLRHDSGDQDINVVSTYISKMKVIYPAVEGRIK
Method in brief: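 Soluble recombinant CD73 (36 ng/mL) incubated with compound and 50 μM AMP for 30 min at 25 °C in 25 mM Tris pH 7.5, 5 mM MgCl2, 0.005% Tween-20. Released inorganic phosphate read by malachite green; IC50 from non-linear regression of % inhibition.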

[1] = biological target: T2, CD73 enzymatic activity expressed on the cell surface of MDA-MB-231 cells (Homo sapiens, UniProt P21589); test: Inhibition of CD73 enzymatic activity on the cell surface (Cell Titer Glo (CTG) experiment), MDA-MB-231 cells; format: cell-based; details: MDA-MB-231 cells endogenously expressing CD73, AMP, 37° C. for 2 hours, CTG readout; read-out: Cellular activity IC50
T2 construct: Human breast cancer cells MDA-MB-231 that endogenously express CD73 were used; host or cells: MDA-MB-231
T2 sequence (P21589 27-549): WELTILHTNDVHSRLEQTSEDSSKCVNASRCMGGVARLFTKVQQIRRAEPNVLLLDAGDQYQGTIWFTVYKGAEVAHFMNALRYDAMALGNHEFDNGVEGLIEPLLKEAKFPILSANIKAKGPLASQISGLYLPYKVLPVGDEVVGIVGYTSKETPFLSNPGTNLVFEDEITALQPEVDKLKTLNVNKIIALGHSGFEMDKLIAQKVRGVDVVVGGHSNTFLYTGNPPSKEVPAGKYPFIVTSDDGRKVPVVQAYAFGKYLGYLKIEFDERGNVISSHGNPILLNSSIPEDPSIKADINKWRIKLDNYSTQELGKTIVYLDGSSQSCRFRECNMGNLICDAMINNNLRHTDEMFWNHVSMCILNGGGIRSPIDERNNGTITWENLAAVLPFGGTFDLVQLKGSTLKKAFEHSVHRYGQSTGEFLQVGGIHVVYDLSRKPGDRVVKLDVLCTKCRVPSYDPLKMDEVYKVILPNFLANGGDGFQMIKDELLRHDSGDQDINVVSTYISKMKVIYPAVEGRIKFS
Method in brief: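 MDA-MB-231 cells with endogenous CD73 were washed serum-free, preincubated with compound for 15 min, then given AMP (1.2 mM stock) for 2 h at 37° C. Remaining AMP in the supernatant was read by CellTiter-Glo with added ATP. IC50 came from a four-parameter logistic fit.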

IC50 (CD73): 0.32 nM
IC50 [1]: 0.14 nM
Compound: O=P(O)(O)CP(=O)(O)OC[C@H]1O[C@@H](n2ncc3c(N[C@@H]4CCc5ccc(F)cc54)cc(Cl)nc32)[C@H](O)[C@@H]1O [Example 17, (((((2R,3S,4R,5R)-5-(6-chloro-4-(((R)-6-fluoro-2,3-dihydro-1H-inden-1-yl)amino)-1H-pyrazolo[3,4-b]pyridin-1-yl)-3,4-dihydroxytetrahydrofuran-2-yl)methoxy)(hydroxy)phosphoryl)methyl)phosphonic acid]
